Laboratory results published in paper PMC10618744 (Cancer Discovery, 2023).

Target: PRMT5 (protein arginine methyltransferase 5) (Homo sapiens, UniProt O14744)
Assay type: biochemical

PRMT5 (protein arginine methyltransferase 5), sequence (O14744 2-637): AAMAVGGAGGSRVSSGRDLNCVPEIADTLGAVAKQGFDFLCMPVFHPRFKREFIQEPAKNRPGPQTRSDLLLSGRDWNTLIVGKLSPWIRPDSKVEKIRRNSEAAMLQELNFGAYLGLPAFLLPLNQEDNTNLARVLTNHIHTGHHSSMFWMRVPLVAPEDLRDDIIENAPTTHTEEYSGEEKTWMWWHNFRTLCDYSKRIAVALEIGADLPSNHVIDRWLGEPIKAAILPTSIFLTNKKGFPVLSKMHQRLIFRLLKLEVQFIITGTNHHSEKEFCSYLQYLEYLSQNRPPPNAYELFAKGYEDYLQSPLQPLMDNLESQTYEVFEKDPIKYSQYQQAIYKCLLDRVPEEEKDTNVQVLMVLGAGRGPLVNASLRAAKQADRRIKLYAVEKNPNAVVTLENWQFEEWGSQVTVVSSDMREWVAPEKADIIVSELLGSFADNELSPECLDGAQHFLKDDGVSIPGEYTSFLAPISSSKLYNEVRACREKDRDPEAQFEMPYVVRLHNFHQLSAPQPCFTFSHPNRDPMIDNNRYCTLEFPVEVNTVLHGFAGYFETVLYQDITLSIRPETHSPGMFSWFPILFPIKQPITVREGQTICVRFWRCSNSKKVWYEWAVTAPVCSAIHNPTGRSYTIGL
PRMT5 (protein arginine methyltransferase 5), sequence (Q9BQA1 2-342 partner): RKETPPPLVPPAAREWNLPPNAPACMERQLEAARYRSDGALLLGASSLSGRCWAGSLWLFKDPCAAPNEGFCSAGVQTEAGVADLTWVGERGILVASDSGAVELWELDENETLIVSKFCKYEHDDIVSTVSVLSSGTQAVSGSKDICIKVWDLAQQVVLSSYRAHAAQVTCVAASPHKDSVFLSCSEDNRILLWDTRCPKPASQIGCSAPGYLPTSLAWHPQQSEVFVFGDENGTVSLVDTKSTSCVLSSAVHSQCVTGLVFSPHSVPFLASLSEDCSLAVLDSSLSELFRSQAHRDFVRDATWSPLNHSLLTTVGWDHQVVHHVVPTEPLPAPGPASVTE

## CSC[C@H]1O[C@@H](n2cnc3c(N)ncnc32)[C@H](O)[C@@H]1O [MTA]
  IC50: ~2000 nM
